# From US20110269790A1, “NOVEL THIENOPYRIDINES AS PHARMACOLOGICALLY ACTIVE AGENTS” (priority 2009, published 2011)
# Columns and labels:
# [1] = Acute oral toxicity, main study in mice; details: both sexes, mouse, in vivo, single oral dose, read-out: Maximum tolerated dose
# Protocol: In the preliminary sighting study, the effect of various dosed administered to single animals of each sex was investigated in a sequential manner. The sighting study generally yields information on the dose-toxicity relationship including an estimate of the minimum lethal dose. In the main study, the test article is administered to groups of 5 males and 5 female animals at one of the fixed doses (5, 50, 500 and 2000 mg/Kg). The dose is derived from the sighting study. It is immediately below that which is expected to result in mortality. If evident toxicity is not seen at the chosen dose level, the substance should be retested at the next higher dose level. If at the initial dose level, animals die, or a severe toxicity reaction requires removal of animals from the study for animal welfare reasons, the substance is retested at the next lower dose level. Consideration of data from the both sighting study and the main study enabled a judgment to be made on determination of maximum tolerated dose.
# At least 10 animals (5 males and 5 females) for each species were used for dose level in this study. Animals were fasted overnight and test articles were administered as 1% gum acacia suspension orally. The dose used in this study is selected from one of four levels 5 mg/kg, 50 mg/kg, 500 mg/kg and 2000 mg/kg i.e. the dose that produced evident toxicity but not mortality in sighting study. […] Different biochemical and hematology parameters observed on “0’ day and on termination day .During main study physical parameters like feed consumption and body weight increase were also recorded. 5 males and females were taken, and toxicity study conducted for the compounds. […] Hematology and biochemical parameters were well and within normal range when compared with 0 day in rats and mice. Based on above observations synthetic compounds were safe upto 2000 mg/kg.
# Nitric oxide = Nitric oxide (nitrite, Griess) estimation in LPS treated RAW 264.7 macrophages; type: cell-based, mouse; details: 24 hrs, different concentrations, vs LPS treated control
# Protocol: Cell Culture and Treatment: The RAW 264.7 (mouse macrophages, national center for cellular sciences) cells were grown in plastic T-25 culture flask in Dulbeccos modified eagles medium (DMEM) without phenol red supplemented with 10% heat activated serum (heating at 57° C. for 30 minutes, 100 μg per ml penicillin, 200 μg per ml streptomycin, 2 mmol L-glutamine, 1% antibiotic/Anti mycotic solution (GIBCO/SRL) under 5% co2 with 85% relative humidity at 37° C. After 2-3 days cells were removed from the culture flask by tripsinizing the cells with Trypsin EDTA solution. Cell count and viability was performed using a standard Trypan blue dye exclusion method. The cell concentration was adjusted to 1×10^5 cells per ml in each well with the same media in the 12 well plates. After 24 hrs incubation the media was removed from each well replaced with a fresh one containing different concentrations (50 μg, 25 μg, 12.5 μg) of the synthetic compounds BN-4, BN-14 and BN-16 along with 10 μg/ml LPS, where as normal control (PBS) and positive controls (Dexa, Roli) LPS (10 μg/ml), were added. 200 μl of media from each well was collected at 6 hrs for the estimation of TNF-α and after 24 hrs for Nitric Oxide respectively. The adherent cells, which remained after removing the media was subjected to […] for determining the cytotoxicity of compounds at selected concentrations
# Measurement of Nitrite: For determination of nitric oxide concentration, the stable conversion product of nitric oxide, nitrite (NO^2−) was measured using the Griess reagent (Chi et, al., 2001). After 24 hrs incubation a volume of 100 μl of supernatant from each well of cell culture plates was transferred to 96 well micro plate and equal volume of Griess reagent (1% sulphanilamide, 0.1% N-(1-naphthyl ethylene diamine hydrochloride), 2.5% H3PO4) was then added to the supernatant at room temperature. The absorbance at 570 nm was determined in multi detection Microplate reader after 10 min. Nitric oxide concentration was calculated using standard curve.
# Wistar rats = assay: Antidiabetic activity by starch loaded model; type: in vivo, rat; details: for % Increase in glucose, 30 min / Blood glucose level, 30 min: 30 min after starch; for % Increase in glucose, 30 min / Blood glucose level, 30 min / % Increase in glucose, 60 min / Blood glucose level, 60 min / % Increase in glucose, 90 min / Blood glucose level, 90 min / % Increase in glucose, 120 min / Blood glucose level, 120 min / Blood glucose level, 0 min: test compounds 100 mg/kg, Acarbose 10 mg/kg oral; for Blood glucose level, 30 min / Blood glucose level, 60 min / Blood glucose level, 90 min / Blood glucose level, 120 min / Blood glucose level, 0 min: in mg/dL (unit assumed); for % Increase in glucose, 60 min / Blood glucose level, 60 min: 60 min after starch; for % Increase in glucose, 90 min / Blood glucose level, 90 min: 90 min after starch; for % Increase in glucose, 120 min / Blood glucose level, 120 min: 120 min after starch; for Blood glucose level, 0 min: basal, prior to dosing
# Source text: Experimental Animals—Wistar rats of either sex were used for the present study. Animals selected for use in the study were of uniform age and body weight. A minimum of 40 rats, from which eventually 20 rats were selected. Their body weights were in the range of 150-180 gm. The health status of the animals was ascertained by a veterinary surgeon. […] Animals were acclimatized for at least two weeks prior to start of the study. The animals were provided with pellet diet manufactured by NIN, HYDERABAD, India and drinking water adlibitum.
# Compound Preparation The required quantity of the synthetic compounds were weighed and made suspension with gum acacia (2%). The test compounds were administered to all rats by per oral route. Acarbose suspension was also prepared in gum acasia suspension and given by oral route.
# Antidiabetic activity by Starch model: The method of Rao et al., 2009;Tiwari et al was employed. Animals were fasted over night (12 hrs). Basal blood glucose levels were estimated for all the animals prior to dosing in test and standard groups. This was designated as “0” min reading. […] After test compounds administration animals in all three groups received Starch aqueous solution (2 gm/kg body weight). Blood glucose levels were monitored at 30, 60, 90 and 120 min after the administration of Starch in all the three groups. The percentage of increase in, blood glucose levels was calculated with respect to the control group at each time point.
# rats = assay: Ulcerogenic assay; type: in vivo, rat; details: BN compounds 200 mg/kg oral, Indomethacin 30 mg/kg; for Ulcer Score: arbitrary scale 0 (no lesions) to 4 (mucosa full of lesions); for Ulcer Incidence: fasted rats, six hours after dosing, n=4
# Protocol: The method of Cashin et al., (1979) was employed. Food was withheld from the animals for 18 hours prior to the experiment. The fasted animals (n=4) received the compounds BN-4, BN-14 and BN-16 as gum acacia suspension by oral route at the dose of 100,200 mg/kg. Indomethacin control animals received the drug at the dose of 30 mg/kg. Six hours later, rats were killed and the stomachs removed and open along the lesser curvature. The opened stomach was washed with normal saline and observed for ulceration. Lesions on the mucosal surface was scored according to arbitrary scale: 0 No lesion; 0.5=hyperemia; 1=one or two lesions; 2=severe lesions; 3=very severe lesions; 4=Mucosal full of lesions (Bani et al., 2000). […] But indomethacin group animals show severe ulceration in stomach portion. More importantly, gastric ulcer, which is a common side effect of NSAIDS, was totally absent in stomach of compound treated rat group. Since enhanced leukotrine production plays a role in development of gastrointestinal damage from cyclooxygenase inhibition by NSAIDS (Rainsford et al., 1993; Gyomber et al., 1996) and all the compounds have shown potent inhibitory action on 5-LOX inhibition (Arachidonic induced paw edema model) along with cox inhibition (Carrageenan induced paw edema model), the gastric ulcer sparing effect of compounds may be partly due to their effect on 5-LOX inhibition.
Compound,MTD at 14 days [1],Release of NO from murine macrophage cell line (Nitric oxide),"Reduction in percentage increase in blood glucose levels (Wistar rats; 100 mg/kg oral, starch 2 gm/kg, 30-120 min, vs diabetic control)","% Increase in glucose, 30 min (Wistar rats)","Blood glucose level, 30 min (Wistar rats)","% Increase in glucose, 60 min (Wistar rats)","Blood glucose level, 60 min (Wistar rats)","% Increase in glucose, 90 min (Wistar rats)","Blood glucose level, 90 min (Wistar rats)","% Increase in glucose, 120 min (Wistar rats)","Blood glucose level, 120 min (Wistar rats)","Blood glucose level, 0 min (Wistar rats; starch 2 gm/kg)",Ulcer Score (rats),Ulcer Incidence (rats)
"Cc1sc2nc3c(c(N)c2c1C)CCCCC3 [BN-4, 2,3-dimethyl-6,7,8,9-tetrahydro-5H-cyclohepta[b]thieno[3,2-e]pyridin-4-amine]",> 2000 mg/kg,significantly (p<0.01) suppressed,,,,,,,,,,,,
"Nc1c2c(nc3sc4c(c13)CCC4)CCC2 [BN-13, 1,2,3,6,7,8-hexahydrocyclopenta [b]cyclopenta[4,5] thieno[3,2-e]pyridin-9-amine]",,,greatest inhibitory activity,32.75%,108.37,35.89%,110.82,30.53%,106.50,30.27%,106.30,81.67,,
"Nc1c2c(nc3sc4c(c13)CCC4)CCCC2 [BN-14, 2,3,6,7,8,9-Hexahydro-1H-cyclopenta[4,5]thieno[2,3-b]quinolin-10-amine]",1250 mg/kg,significantly (p<0.01) suppressed,,37.65%,103.83,36.02%,102.80,45.00%,109.33,32.21%,99.83,75.5,0.37 ± 0.10,¼
"CC1CCc2c(nc3sc4c(c3c2N)CCC4)C1 (stereo not shown) [BN-15, 7-Methyl-2,3,6,7,8,9-hexahydro-1H-cyclopenta[4,5]thieno[2,3-b]quinolin-10-amine]",,,,42.13%,115.50,51.64%,123.03,39.76%,113.75,42.80%,116.05,81.45,,
"Nc1c2c(nc3sc4c(c13)CCC4)CCCCC2 [BN-16, 1,2,3,6,7,8,9,10-Octahydrocyclohepta[b]cyclopenta[4,5]thieno[3,2-e]pyridine-11-amine]",> 2000 mg/kg,significantly (p<0.01) suppressed,,,,,,,,,,,0.25 ± 0.12,0/4
"Nc1c2c(nc3sc4c(c13)CCC4)CCCCCC2 [BN-17, 2,3,6,7,8,9,10,11-Octahydro-1H-cycloocta [b]cyclopenta[4,5]thieno[3,2-e]pyridin-12-amine]",,,,51.74%,124.60,52.35%,125.13,49.67%,123.13,49.64%,122.80,82.40,,
"COc1ccc2c(c1)c(CC(=O)O)c(C)n2C(=O)c1ccc(Cl)cc1 [Indomethacin, reference compound]",,,,,,,,,,,,,2.25 ± 0.41,4/4
